Our source for the survival values is paper PMC7856883 (Advanced Science, 2020).

For this test, the system named is A/California/09. Details: species or system BALB/c mice. The settings on record: mouse, in vivo.

Several values for one entry are separate records, joined by “and”; a condition that tells them apart may be missing. Identical values can stand only once.

On to `CCOC(=O)C1=C[C@@H](OC(CC)CC)[C@H](NC(C)=O)[C@@H](N)C1` [oseltamivir], for which the survival is 10/10 and 0 out of 10 and no survival.
